Measured values: patent publication US20260258029A1, “CHROMANE AMIDINE MONOBACTAM COMPOUNDS FOR THE TREATMENT OF BACTERIAL INFECTIONS” (priority 2022, published 2026)

Columns and labels:
Type in all cases: cell-based
[1] = system: Acinetobacter baumannii expressing TEM-1, AmpC, and Oxa-24/40 (CL6188); conditions: lowest concentration inhibiting 95% of bacterial growth; BLi relebactam 4 μg/mL; 35±2° C., 22 hours; OD600
Description: (§1) The concentrations of compounds required to inhibit the growth of various strains of bacteria were determined in an assay that assessed bacterial growth by measuring optical density at 600 nm (OD600). The bacterial strains tested included the clinical strains Escherichia coli expressing NDM-1 (CLB30016), Klebsiella pneumoniae expressing KPC-1 (CL6569), Acinetobacter baumannii expressing TEM-1, AmpC, and Oxa-24/40 (CL6188) and Pseudomonas aeruginosa expressing AmpC (CL5701). All compounds were tested in the presence of a R lactamase inhibitor (BLi, Relebactam) in 384-well microplates.
(§2) The clinical strains were stored as frozen single use stocks, thawed and diluted into 1.1× cation-adjusted Mueller-Hinton II broth to achieve approximately 2×10^5 CFU/mL. Test compounds were dissolved in DMSO and diluted 1:50 in the assay, resulting in a final concentration range of 100 μM to 0.098 μM. On the day of the assay, 1 μL of test compound was added to the plate followed by 4 μL of 50 μg/mL BLi in MOPS buffer and 45 μL of diluted bacteria. Plates were centrifuged at 1000 rpm for 30 seconds, shaken at approximately 800 rpm for 1 minute, and incubated at 35±2° C. for 22 hours. The concentration of BLi used in the assay was 4 μg/mL. At the end of the incubation, absorbance at 600 nm was determined using a spectrophotometer. Inhibition was quantitated by identifying the lowest concentration of test compound that was required to inhibit 95% of the growth of the bacteria. The results for Examples 1-39 are reported in Table I, expressed as the concentration of compound that inhibited 95% of bacterial growth (Minimum Inhibitory Threshold Concentration; MITC95).

[2] = system: Pseudomonas aeruginosa expressing AmpC (CL5701); assay: Growth inhibitory concentration (OD600), P. aeruginosa CL5701, with relebactam; conditions: lowest concentration inhibiting 95% of bacterial growth, BLi relebactam 4 μg/mL, 35±2° C., 22 hours
Description: as §1, §2

[3] = system: Escherichia coli expressing NDM-1 (CLB30016); assay: Growth inhibitory concentration (OD600), E. coli CLB30016, with relebactam; conditions: lowest concentration inhibiting 95% of bacterial growth, BLi relebactam 4 μg/mL, 35±2° C., 22 hours
Description: as §1, §2

Compound: tert-butyl (S)-2-((((Z)-1-(2-((tert-butoxycarbonyl)amino)thiazol-4-yl)-2-(((S)-2,2-dimethyl-4-oxo-1-(sulfooxy)azetidin-3-yl)amino)-2-oxoethylidene)amino)oxy)-2-((R)-6-(N—(((S)-morpholin-2-yl)methyl)carbamimidoyl)chroman-2-yl)propanoate [Compound 32]
- AB—CL6188 MITC95 [1]: 12.5 µM
- PA—CL5701 MITC95 [2]: 3.125 µM
- EC—CLB30016 MITC95 [3]: 6.25 µM

Compound: CC1(C)[C@H](NC(=O)/C(=N\O[C@](C)(C(=O)O)[C@H]2CCc3cc(C(=N)NC[C@H]4C[C@@](N)(CO)C4)ccc3O2)c2csc(N)n2)C(=O)N1OS(=O)(=O)O [Compound 71, (S)-2-((R)-6-(N-(((1r,3R)-3-amino-3-(hydroxymethyl)cyclobutyl)methyl)-carbamimidoyl)-chroman-2-yl)-2-((((Z)-1-(2-aminothiazol-4-yl)-2-(((S)-2,2-dimethyl-4-oxo-1-(sulfooxy)-azetidin-3-yl)amino)-2-oxoethylidene)amino)oxy)propanoic acid]
- AB—CL6188 MITC95 [1]: 3.125 µM
- PA—CL5701 MITC95 [2]: 1.563 µM
- EC—CLB30016 MITC95 [3]: 6.25 µM

Compound: CC1(C)[C@H](NC(=O)/C(=N\O[C@](C)(C(=O)O)[C@H]2CCc3cc(C(=N)NC[C@H]4C[C@](N)(CO)C4)ccc3O2)c2csc(N)n2)C(=O)N1OS(=O)(=O)O [Compound 70, (S)-2-((R)-6-(N-(((1s,3S)-3-amino-3-(hydroxymethyl)cyclobutyl)methyl)-carbamimidoyl)-chroman-2-yl)-2-((((Z)-1-(2-aminothiazol-4-yl)-2-(((S)-2,2-dimethyl-4-oxo-1-(sulfooxy)-azetidin-3-yl)amino)-2-oxoethylidene)amino)oxy)propanoic acid]
- AB—CL6188 MITC95 [1]: 6.25 µM
- PA—CL5701 MITC95 [2]: 1.563 µM
- EC—CLB30016 MITC95 [3]: 6.25 µM
